This passage reports IC50 results from patent US10221181B2, “6-amino-7-bicyclo-7-deaza-purine derivatives as protein kinase inhibitors” (NERVIANO MEDICAL SCIENCES S.r.l., priority 2014, dated 2019).

Where two headings read alike, the source gives them in different places.

Assay type in all cases: cell-based
One experiment relates to A2780 ovarian carcinoma. Briefly: In vitro cell proliferation assay, A2780 (non RET-dependent control). As to conditions: Homo sapiens. As to the method:
(§1) In Vitro Cell Proliferation Assay
(§2) To evaluate the antiproliferative activity of a compound of formula (I) the following human cell lines were used: A2780 ovarian carcinoma; TT medullary thyroid carcinoma, harboring a mutated RET-C634W receptor; LC-2/ad human lung adenocarcinoma, harboring the CCDC6-RET fusion protein. Exponentially growing cells were seeded and incubated at 37° C. in a humidified 5% CO2 atmosphere using appropriate medium supplemented with 10% Fetal Bovine Serum. 24 hours following cell plating, scalar doses of the compounds dissolved in 0.1% DMSO were added to the medium and cells were exposed to drugs for either 72 hours (A2780) or 144 hours (TT and LC-2/ad), according to their different proliferation rate. At the end of treatment, cell proliferation was determined by an intracellular ATP monitoring system (CellTiterGlo—Promega), following manufacturer's instructions, and using an Envision instrument (PerkinElmer) as reader. Data obtained from compound versus vehicle treated cells were compared using Assay Explorer (Symyx Technologies Inc) software. IC50 values were calculated using sigmoidal interpolation curve fitting. In the following Table A the antiproliferative activity of representative compounds of formula (I) on one medullary thyroid carcinoma cell line expressing the aforementioned mutated forms of RET (TT) and on one lung adenocarcinoma cell line harboring the aforementioned fusion form of RET (LC-2/ad) is reported. As control, the antiproliferative activity of the same compounds on an unrelated non RET-dependent cell line (A2780) is reported. All these compounds show remarkable activity on RET-driven cellular models with respect to the unrelated ones.

The subject of experiment [1] is LC-2/ad human lung adenocarcinoma, harboring the CCDC6-RET fusion protein. Briefly: In vitro cell proliferation assay, LC-2/ad. As to the method:
as §1, §2

In experiment [2] the test system is TT medullary thyroid carcinoma, harboring a mutated RET-C634W receptor. Briefly: In vitro cell proliferation assay, TT. To be noted: Homo sapiens. As to the method:
as §1, §2

Setting [3] is: A2780, antiproliferative activity, 72 hours exposure, CellTiterGlo ATP readout, unrelated non RET-dependent cell line, read-out: A2780 IC50.
The mark [4] stands for this setting: antiproliferative activity, 144 hours exposure, CellTiterGlo ATP readout, CCDC6-RET fusion, read-out: LC-2/ad IC50.
[5] abbreviates: antiproliferative activity, 144 hours exposure, CellTiterGlo ATP readout, RET-C634W, read-out: TT IC50.
Where [6] appears, read: A2780, 72 h, read-out: A2780 IC50 (μM).
Where [7] appears, read: 144 h, read-out: LC-2/ad IC50 (μM).

Take `Nc1ncnc2c1c(-c1ccc3c(C(=O)NC4CC4)cccc3c1)cn2C1CCC1` [cmpd 12, 6-(4-Amino-7-cyclobutyl-7H-pyrrolo[2,3-d]pyrimidin-5-yl)-naphthalene-1-carboxylic acid cyclopropylamide]: the IC50 in the experiment with A2780 ovarian carcinoma (setting [3]) was 1.84 µM; in experiment [1] (setting [4]) it was 0.051 µM; in experiment [2] (setting [5]), 0.042 µM.
Take `CC(C)n1cc(-c2ccc3c(C(=O)NC4CCC4)cccc3c2)c2c(N)ncnc21` [cmpd 11, 6-(4-Amino-7-isopropyl-7H-pyrrolo[2,3-d]pyrimidin-5-yl)-naphthalene-1-carboxylic acid cyclobutylamide]: the IC50 was determined as 0.961 µM with A2780 ovarian carcinoma (setting [3]), 0.034 µM in experiment [1] (setting [4]) and 0.028 µM in experiment [2] (setting [5]).
The corresponding values for `Nc1ncnc2c1c(-c1ccc3c(C(=O)NC4CC4)cccc3c1)cn2C1CCOCC1` [cmpd 8, 6-[4-Amino-7-(tetrahydro-pyran-4-yl)-7H-pyrrolo[2,3-d]pyrimidin-5-yl]-naphthalene-1-carboxylic acid cyclopropylamide] are 0.814 µM, 0.011 µM and 0.009 µM.
Consider `Nc1ncnc2c1c(-c1ccc3c(C(=O)NC4CC4)cccc3c1)cn2C1CCCC1` [cmpd 3, 6-(4-Amino-7-cyclopentyl-7H-pyrrolo[2,3-d]pyrimidin-5-yl)-naphthalene-1-carboxylic acid cyclopropylamide], for which the values for the IC50 (in the experiment with A2780 ovarian carcinoma (setting [3]); in experiment [1] (setting [4]); in experiment [2] (setting [5])) were 0.385 µM, 0.006 µM and 0.003 µM, respectively.
In the case of `CC(C)n1cc(-c2ccc3c(c2)CCN3C(=O)NC2CC2)c2c(N)ncnc21` [cmpd 16, 5-(4-Amino-7-isopropyl-7H-pyrrolo[2,3-d]pyrimidin-5-yl)-2,3-dihydro-indole-1-carboxylic acid cyclopropylamide], the IC50 with A2780 ovarian carcinoma (setting [6]) was 2.19 µM; in experiment [1] (setting [7]), 0.084 µM; in experiment [2] (144 h, read-out: TT IC50 (μM)), 0.077 µM.
On to `Nc1ncnc2c1c(-c1ccc3c(C(=O)NC4CC4)cccc3c1)cn2C1CCC(F)(F)CC1` [cmpd 30, 6-[4-Amino-7-(4,4-difluoro-cyclohexyl)-7H-pyrrolo[2,3-d]pyrimidin-5-yl]-naphthalene-1-carboxylic acid cyclopropylamide], for which the IC50 turned out to be 2.34 µM with A2780 ovarian carcinoma (setting [3]), 0.04 µM in experiment [1] (setting [4]) and 0.03 µM in experiment [2] (setting [5]).
`CC(C)NC(=O)c1cccc2cc(-c3cn(C(C)C)c4ncnc(N)c34)ccc12` [cmpd 5, 6-(4-Amino-7-isopropyl-7H-pyrrolo[2,3-d]pyrimidin-5-yl)-naphthalene-1-carboxylic acid isopropylamide]: the IC50 came to 2.94 µM with A2780 ovarian carcinoma (setting [6]); 0.082 µM in experiment [1] (setting [7]); 0.086 µM in experiment [2] (144 h, read-out: TT IC50 (μM)).
`CC(C)n1cc(-c2ccc3c(C(N)=O)cccc3c2)c2c(N)ncnc21` [cmpd 4, 6-(4-Amino-7-isopropyl-7H-pyrrolo[2,3-d]pyrimidin-5-yl)-naphthalene-1-carboxylic acid amide]: the values for the IC50 (in the experiment with A2780 ovarian carcinoma (setting [3]); in experiment [1] (setting [4]); in experiment [2] (setting [5])) were 2.42 µM, 0.021 µM and 0.017 µM, respectively.
For `Nc1ncnc2c1c(-c1ccc3c(C(=O)NC4CC4)cccc3c1)cn2CC1CC1` [cmpd 13, 6-(4-Amino-7-cyclopropylmethyl-7H-pyrrolo[2,3-d]pyrimidin-5-yl)-naphthalene-1-carboxylic acid cyclopropylamide] the same measures were 0.463 µM, 0.006 µM and 0.007 µM.
Regarding `CC(C)n1cc(-c2ccc3c(C(=O)NC4CC4)cccc3c2)c2c(N)ncnc21` [cmpd 1, 6-(4-Amino-7-isopropyl-7H-pyrrolo[2,3-d]pyrimidin-5-yl)-naphthalene-1-carboxylic acid cyclopropylamide], the IC50 in the experiment with A2780 ovarian carcinoma (setting [3]) came out at 0.867 µM; in experiment [1] (setting [4]), 0.003 µM; in experiment [2] (setting [5]) it was 0.001 µM.
For `CNC(=O)c1cccc2cc(-c3cn(C(C)C)c4ncnc(N)c34)ccc12` [cmpd 6, 6-(4-Amino-7-isopropyl-7H-pyrrolo[2,3-d]pyrimidin-5-yl)-naphthalene-1-carboxylic acid methylamide] the same measures were 0.348 µM, 0.049 µM and 0.024 µM.
In the case of `CC(C)n1cc(-c2ccc3c(C(=O)Nc4ccc(CN5CCN(C)CC5)c(C(F)(F)F)c4)cccc3c2)c2c(N)ncnc21` [cmpd 10, 6-(4-Amino-7-isopropyl-7H-pyrrolo[2,3-d]pyrimidin-5-yl)-naphthalene-1-carboxylic acid [4-(4-methyl-piperazin-1-ylmethyl)-3-trifluoromethyl-phenyl]-amide], the IC50 turned out to be 0.072 µM in the experiment with A2780 ovarian carcinoma (setting [3]), 0.008 µM in experiment [1] (setting [4]) and 0.002 µM in experiment [2] (setting [5]).
For the compound `CC(C)n1cc(-c2ccc3c(C(=O)NCC(F)(F)F)cccc3c2)c2c(N)ncnc21` [cmpd 7, 6-(4-Amino-7-isopropyl-7H-pyrrolo[2,3-d]pyrimidin-5-yl)-naphthalene-1-carboxylic acid (2,2,2-trifluoro-ethyl)-amide], the IC50 in the experiment with A2780 ovarian carcinoma (setting [3]) was found to be 2.81 µM; in experiment [1] (setting [4]), 0.046 µM; in experiment [2] (setting [5]), 0.048 µM.
